How the values were obtained:
Assay in all cases: KiNativ kinome profiling in PANC-1 lysate
Format in all cases: binding
[1] = target: T1, AurA (Homo sapiens, UniProt O14965)
T1 construct: endogenous in cells; host or cells: PANC-1 cell lysate
Method in brief: (§1)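 PANC-1 lysates were incubated with 5 μM inhibitor or DMSO, then labeled with a desthiobiotin-ATP acyl-phosphate probe that biotinylates conserved kinase lysines. Tryptic peptides were streptavidin-enriched and quantified by LC-MS/MS, reported as % change in MS signal from duplicate treated and duplicate control samples.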

[2] = target: T2, CDK9 (Homo sapiens, UniProt P50750)
T2 construct: endogenous in cells; host or cells: PANC-1 cell lysate
Method in brief: as §1

[3] = target: T3, CaMKK2 (Homo sapiens, UniProt Q96RR4)
T3 construct: endogenous in cells; host or cells: PANC-1 cell lysate
Method in brief: as §1

[4] = target: T4, Erk3 (Homo sapiens, UniProt Q16659); conditions: Lys2
T4 construct: endogenous in cells; host or cells: PANC-1 lysate
Method in brief: as §1

[5] = target: T5, GCK (Homo sapiens, UniProt Q12851)
T5 construct: we opted to conduct a kinome screen (KiNativ) in PANC-1 cell lysates; endogenous in cells; host or cells: PANC-1 cell lysate
Method in brief: as §1

[6] = target: T6, GCN2 domain2 (Homo sapiens, UniProt Q9P2K8)
T6 construct: we opted to conduct a kinome screen (KiNativ) in PANC-1 cell lysates; endogenous in cells; host or cells: PANC-1 cell lysate
Method in brief: as §1

[7] = target: T7, IRAK4 (Homo sapiens, UniProt Q9NWZ3)
T7 construct: we opted to conduct a kinome screen (KiNativ) in PANC-1 cell lysates; endogenous in cells; host or cells: PANC-1 cell lysate
Method in brief: as §1

[8] = target: T8, IRE1 (Homo sapiens, UniProt O75460)
T8 construct: we opted to conduct a kinome screen (KiNativ) in PANC-1 cell lysates; endogenous in cells; host or cells: PANC-1 cell lysate
Method in brief: as §1

[9] = target: T9, MAST4 (Homo sapiens, UniProt O15021); conditions: Lys2
T9 construct: endogenous in cells; host or cells: PANC-1
Method in brief: as §1

[10] = target: T10, PIP4K2C (Homo sapiens, UniProt Q8TBX8); conditions: ATP
T10 construct: endogenous in cells; host or cells: PANC-1 cell lysate
Method in brief: as §1

[11] = target: T11, PKD3 (Homo sapiens, UniProt O94806)
T11 construct: endogenous in cells; host or cells: PANC-1 cell lysate
T11 sequence (O94806 1-890): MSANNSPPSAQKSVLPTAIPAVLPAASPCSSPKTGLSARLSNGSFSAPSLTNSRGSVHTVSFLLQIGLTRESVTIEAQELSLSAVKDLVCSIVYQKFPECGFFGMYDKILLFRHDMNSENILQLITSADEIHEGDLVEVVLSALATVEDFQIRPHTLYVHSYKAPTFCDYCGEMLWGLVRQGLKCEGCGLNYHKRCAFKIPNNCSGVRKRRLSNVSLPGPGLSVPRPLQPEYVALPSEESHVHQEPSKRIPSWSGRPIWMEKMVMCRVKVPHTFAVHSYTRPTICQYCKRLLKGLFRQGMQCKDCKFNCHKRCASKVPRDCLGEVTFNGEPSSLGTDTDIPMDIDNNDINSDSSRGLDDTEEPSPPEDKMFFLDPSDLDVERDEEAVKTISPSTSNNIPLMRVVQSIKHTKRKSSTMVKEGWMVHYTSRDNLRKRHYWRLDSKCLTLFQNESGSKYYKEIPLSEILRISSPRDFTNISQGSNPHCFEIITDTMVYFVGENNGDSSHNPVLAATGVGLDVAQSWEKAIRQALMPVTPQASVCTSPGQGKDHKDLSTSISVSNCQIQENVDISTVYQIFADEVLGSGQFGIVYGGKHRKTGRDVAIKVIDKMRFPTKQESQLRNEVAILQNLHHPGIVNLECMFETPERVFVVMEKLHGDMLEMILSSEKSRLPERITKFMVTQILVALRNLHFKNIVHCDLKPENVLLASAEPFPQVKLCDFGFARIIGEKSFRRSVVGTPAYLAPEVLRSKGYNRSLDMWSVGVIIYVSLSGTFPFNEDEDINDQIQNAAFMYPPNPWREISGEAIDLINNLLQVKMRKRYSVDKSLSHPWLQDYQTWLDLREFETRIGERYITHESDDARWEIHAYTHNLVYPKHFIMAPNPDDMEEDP
Method in brief: as §1

[12] = target: T12, RSK1 domain1 (Homo sapiens, UniProt Q15418); conditions: ATP Loop
T12 construct: endogenous in cells; host or cells: PANC-1 cell lysate
Method in brief: as §1

[13] = target: T13, SLK (Homo sapiens, UniProt Q9H2G2)
T13 construct: endogenous in cells; host or cells: PANC-1 cell lysate
Method in brief: as §1

T10 sequence (Q8TBX8 whole entry): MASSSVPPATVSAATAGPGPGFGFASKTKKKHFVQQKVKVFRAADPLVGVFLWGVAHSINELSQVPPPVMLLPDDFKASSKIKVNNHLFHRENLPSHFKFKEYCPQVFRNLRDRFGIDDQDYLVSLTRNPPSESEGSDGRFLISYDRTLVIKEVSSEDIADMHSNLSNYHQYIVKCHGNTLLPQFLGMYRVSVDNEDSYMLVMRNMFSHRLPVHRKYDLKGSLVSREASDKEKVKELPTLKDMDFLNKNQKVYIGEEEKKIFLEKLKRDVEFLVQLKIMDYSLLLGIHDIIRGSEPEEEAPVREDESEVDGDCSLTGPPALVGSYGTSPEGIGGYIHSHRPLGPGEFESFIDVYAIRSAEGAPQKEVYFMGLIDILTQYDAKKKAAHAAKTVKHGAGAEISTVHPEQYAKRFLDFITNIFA
T2 sequence (P50750 whole entry): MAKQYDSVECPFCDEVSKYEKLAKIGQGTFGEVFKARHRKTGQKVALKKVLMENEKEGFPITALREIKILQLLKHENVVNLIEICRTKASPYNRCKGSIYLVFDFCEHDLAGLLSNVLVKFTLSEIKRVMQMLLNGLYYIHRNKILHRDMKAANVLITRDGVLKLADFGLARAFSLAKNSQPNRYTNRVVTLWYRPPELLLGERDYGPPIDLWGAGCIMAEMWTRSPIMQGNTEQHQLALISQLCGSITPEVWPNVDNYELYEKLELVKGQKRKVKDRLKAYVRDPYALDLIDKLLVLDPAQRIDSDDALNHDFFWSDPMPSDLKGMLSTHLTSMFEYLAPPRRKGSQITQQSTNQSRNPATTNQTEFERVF
T1 sequence (O14965 whole entry): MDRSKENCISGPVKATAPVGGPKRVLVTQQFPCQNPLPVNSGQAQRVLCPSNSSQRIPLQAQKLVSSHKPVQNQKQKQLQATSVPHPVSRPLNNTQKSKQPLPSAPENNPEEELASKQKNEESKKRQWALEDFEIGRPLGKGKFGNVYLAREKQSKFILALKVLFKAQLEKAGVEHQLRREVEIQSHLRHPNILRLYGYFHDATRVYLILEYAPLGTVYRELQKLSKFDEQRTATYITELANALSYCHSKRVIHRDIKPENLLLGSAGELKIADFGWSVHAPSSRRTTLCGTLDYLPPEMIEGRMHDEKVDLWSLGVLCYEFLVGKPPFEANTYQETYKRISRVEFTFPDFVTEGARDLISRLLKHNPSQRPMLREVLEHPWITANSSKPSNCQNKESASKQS
T8 sequence (O75460 19-977): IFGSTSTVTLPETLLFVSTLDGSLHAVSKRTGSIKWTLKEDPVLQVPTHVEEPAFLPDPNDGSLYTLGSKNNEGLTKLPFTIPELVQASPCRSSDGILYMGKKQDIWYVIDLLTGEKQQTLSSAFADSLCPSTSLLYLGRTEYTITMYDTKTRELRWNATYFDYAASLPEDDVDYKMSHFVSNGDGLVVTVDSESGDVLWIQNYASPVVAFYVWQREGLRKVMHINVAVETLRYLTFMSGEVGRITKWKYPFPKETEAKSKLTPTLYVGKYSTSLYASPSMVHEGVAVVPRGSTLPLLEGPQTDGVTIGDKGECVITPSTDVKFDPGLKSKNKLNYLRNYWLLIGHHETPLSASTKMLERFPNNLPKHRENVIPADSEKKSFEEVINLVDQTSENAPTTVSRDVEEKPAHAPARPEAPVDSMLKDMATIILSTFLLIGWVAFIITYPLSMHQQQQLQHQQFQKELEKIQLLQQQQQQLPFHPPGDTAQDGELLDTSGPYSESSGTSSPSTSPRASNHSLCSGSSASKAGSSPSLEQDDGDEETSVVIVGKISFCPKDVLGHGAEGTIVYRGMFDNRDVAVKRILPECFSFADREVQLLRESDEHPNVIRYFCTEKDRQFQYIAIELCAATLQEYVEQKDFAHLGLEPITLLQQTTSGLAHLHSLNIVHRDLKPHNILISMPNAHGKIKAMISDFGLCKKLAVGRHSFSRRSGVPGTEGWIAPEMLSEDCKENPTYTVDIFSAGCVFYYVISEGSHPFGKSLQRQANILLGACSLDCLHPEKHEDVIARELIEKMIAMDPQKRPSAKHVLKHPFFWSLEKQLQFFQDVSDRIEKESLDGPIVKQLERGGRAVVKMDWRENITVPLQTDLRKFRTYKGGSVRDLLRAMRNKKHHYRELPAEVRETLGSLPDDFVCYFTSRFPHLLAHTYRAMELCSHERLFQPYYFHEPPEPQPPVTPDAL
T13 sequence (Q9H2G2 whole entry): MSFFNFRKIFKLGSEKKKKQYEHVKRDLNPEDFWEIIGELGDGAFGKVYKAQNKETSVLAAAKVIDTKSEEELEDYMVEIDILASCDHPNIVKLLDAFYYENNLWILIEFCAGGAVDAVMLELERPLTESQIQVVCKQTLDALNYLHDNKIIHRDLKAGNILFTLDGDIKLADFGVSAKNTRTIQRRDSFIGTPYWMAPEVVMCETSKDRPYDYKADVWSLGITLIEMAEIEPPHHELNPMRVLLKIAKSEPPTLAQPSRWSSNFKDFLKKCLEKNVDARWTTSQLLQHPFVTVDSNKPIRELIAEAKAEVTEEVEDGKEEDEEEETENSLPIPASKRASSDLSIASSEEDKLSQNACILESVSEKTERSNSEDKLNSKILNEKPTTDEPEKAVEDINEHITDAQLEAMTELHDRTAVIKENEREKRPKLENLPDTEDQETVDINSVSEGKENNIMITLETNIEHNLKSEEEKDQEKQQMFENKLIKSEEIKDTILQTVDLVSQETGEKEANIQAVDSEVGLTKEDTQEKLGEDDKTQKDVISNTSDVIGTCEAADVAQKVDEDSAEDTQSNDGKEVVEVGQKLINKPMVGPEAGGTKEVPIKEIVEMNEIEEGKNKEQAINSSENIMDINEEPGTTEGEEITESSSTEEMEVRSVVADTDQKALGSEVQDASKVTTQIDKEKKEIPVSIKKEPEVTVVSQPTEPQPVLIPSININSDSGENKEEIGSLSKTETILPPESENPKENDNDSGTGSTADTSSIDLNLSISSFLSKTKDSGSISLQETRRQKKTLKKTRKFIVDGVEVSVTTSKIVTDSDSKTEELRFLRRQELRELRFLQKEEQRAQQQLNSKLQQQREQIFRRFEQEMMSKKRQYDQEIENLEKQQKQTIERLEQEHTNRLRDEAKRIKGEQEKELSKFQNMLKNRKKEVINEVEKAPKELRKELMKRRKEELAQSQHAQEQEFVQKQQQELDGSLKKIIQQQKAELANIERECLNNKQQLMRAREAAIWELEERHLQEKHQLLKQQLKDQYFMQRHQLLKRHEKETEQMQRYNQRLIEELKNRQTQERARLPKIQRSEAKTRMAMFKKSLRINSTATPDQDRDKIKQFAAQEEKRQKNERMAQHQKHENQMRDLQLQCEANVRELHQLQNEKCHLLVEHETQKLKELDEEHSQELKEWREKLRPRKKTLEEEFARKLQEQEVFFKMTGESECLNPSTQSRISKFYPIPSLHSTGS
T5 sequence (Q12851 whole entry): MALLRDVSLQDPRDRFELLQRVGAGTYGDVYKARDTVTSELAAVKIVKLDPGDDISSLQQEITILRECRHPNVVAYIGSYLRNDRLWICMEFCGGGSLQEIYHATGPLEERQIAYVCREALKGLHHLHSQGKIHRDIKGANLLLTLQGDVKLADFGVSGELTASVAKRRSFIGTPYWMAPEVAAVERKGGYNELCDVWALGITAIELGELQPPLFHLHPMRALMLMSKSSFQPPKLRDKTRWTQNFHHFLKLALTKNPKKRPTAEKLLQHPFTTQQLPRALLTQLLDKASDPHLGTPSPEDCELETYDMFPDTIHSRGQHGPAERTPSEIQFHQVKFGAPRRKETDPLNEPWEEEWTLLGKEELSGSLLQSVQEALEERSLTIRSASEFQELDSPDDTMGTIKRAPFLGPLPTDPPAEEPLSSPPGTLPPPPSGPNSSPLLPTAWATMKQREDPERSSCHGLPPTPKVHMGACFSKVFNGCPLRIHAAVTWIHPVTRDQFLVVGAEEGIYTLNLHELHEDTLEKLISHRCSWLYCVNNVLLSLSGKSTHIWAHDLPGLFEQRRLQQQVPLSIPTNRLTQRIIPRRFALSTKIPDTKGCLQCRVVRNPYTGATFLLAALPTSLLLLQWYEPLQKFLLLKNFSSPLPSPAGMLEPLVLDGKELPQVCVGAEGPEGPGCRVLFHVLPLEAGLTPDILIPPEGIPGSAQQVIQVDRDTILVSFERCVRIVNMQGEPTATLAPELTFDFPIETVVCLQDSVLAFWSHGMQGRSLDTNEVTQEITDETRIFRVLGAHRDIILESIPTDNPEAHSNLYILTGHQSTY
T7 sequence (Q9NWZ3 whole entry): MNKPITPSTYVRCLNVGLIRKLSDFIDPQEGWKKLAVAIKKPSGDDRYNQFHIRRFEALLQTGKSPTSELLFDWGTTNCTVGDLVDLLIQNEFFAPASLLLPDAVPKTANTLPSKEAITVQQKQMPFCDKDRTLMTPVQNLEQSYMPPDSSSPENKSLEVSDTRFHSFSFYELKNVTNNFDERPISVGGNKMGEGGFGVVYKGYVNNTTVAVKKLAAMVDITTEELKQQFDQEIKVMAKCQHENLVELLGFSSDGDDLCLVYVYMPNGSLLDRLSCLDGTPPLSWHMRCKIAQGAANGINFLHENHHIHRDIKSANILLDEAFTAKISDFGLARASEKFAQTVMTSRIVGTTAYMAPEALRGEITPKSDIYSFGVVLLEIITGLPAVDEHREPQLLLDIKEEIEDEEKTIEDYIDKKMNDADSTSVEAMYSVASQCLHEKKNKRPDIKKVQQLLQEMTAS

Structure (SMILES): Cn1cc(-c2cnc3ccc(NC(=O)Nc4ccc(F)c(C(F)(F)F)c4)cc3n2)cn1 [51-106, 1-(4-Fluoro-3-(trifluoromethyl)phenyl)-3-(3-(1-methyl-1H-pyrazol-4-yl)quinoxalin-6-yl)urea]
- % Inhibition ([1]; 5 µM, Lys2, DIKPENLLLGSAGELK): NB (NB = No Binding (≤ 0))
- inhibition at 5 µM ([1]; Lys1, […]): ≤ 0%
- % Inhibition ([2]; 5 µM, Lys2, DMKAANVLITR): NB (NB = No Binding (≤ 0))
- inhibition at 5 µM ([2]; ATP Loop, […]): ≤ 0%
- inhibition at 5 µM ([3]; Lys1, LAYNENDNTYYAMKVLSK): 2.6%
- inhibition at 5 µM ([3]; Lys2, DIKPSNLLVGEDGHIK): ≤ 0%
- inhibition at 5 µM [4]: ≤ 0%
- inhibition at 5 µM ([5]; Lys1, DTVTSELAAVKIVK): 18.3%
- inhibition at 5 µM ([5]; Lys2, DIKGANLLLTLQGDVK): 3.9%
- inhibition at 5 µM ([6]; Lys1, LDGCCYAVKR): 5.3%
- inhibition at 5 µM ([6]; Lys2, DLKPVNIFLDSDDHVK): ≤ 0%
- inhibition at 5 µM ([7]; Lys1, GYVNNTTVAVKK): ≤ 0%
- inhibition at 5 µM ([7]; Lys2, DIKSANILLDEAFTAK): 1.2%
- inhibition at 5 µM ([8]; Lys1, GMFDNRDVAVKR): 8.9%
- inhibition at 5 µM ([8]; Lys2, DLKPHNILISMPNAHGK): ≤ 0%
- inhibition at 5 µM [9]: ≤ 0%
- inhibition at 5 µM ([10]; TLVIKEVSSEDIADMHSNLSNYHQYIVK): 21.8%
- inhibition at 5 µM ([10]; VKELPTLKDMDFLNK): ≤ 0%
- % Inhibition ([11]; 5 µM, Lys1, DVAIKVIDK): 27.0%
- inhibition at 5 µM ([11]; Lys1, DVAIKVIDK): 27%
- inhibition at 5 µM ([11]; Lys2, NIVHCDLKPENVLLASAEPFPQVK): ≤ 0%
- inhibition at 5 µM [12]: ≤ 0%
- inhibition at 5 µM ([13]; Lys1, AQNKETSVLAAAKVIDTK): ≤ 0%
- inhibition at 5 µM ([13]; Lys2, DLKAGNILFTLDGDIK): 7%
